In ChEMBL document CHEMBL3826966, “A chromatography-free isolation of rohitukine from leaves of Dysoxylum binectariferum: Evaluation for in vitro cytotoxicity, Cdk inhibition and physicochemical properties” (Bioorg Med Chem Lett, 2016):

Assays:
[1] = target: Calcium/calmodulin-dependent protein kinase kinase 2 (Homo sapiens) (UniProt Q96RR4); test: Inhibition of human CAMKKbeta (1 to 541 residues) assessed as remaining enzyme activity at 50 uM after 30 mins by 33P-ATP filter-binding assay
[2] = target: Dual specificity testis-specific protein kinase 1 (Homo sapiens) (UniProt Q15569); test: Inhibition of human TESK1 (1 to 345 residues) assessed as remaining enzyme activity at 50 uM after 30 mins by 33P-ATP filter-binding assay
[3] = target: Ephrin type-B receptor 3 (Homo sapiens) (UniProt P54753); test: Inhibition of human EPHB3 (561 to 998 residues) assessed as remaining enzyme activity at 50 uM after 30 mins by 33P-ATP filter-binding assay
[4] = target: Serine/threonine-protein kinase D1 (Homo sapiens) (UniProt Q15139); test: Inhibition of human PKD1 (2 to 912 residues) assessed as remaining enzyme activity at 50 uM after 30 mins by 33P-ATP filter-binding assay
[5] = target: Aurora kinase B (Homo sapiens) (UniProt Q96GD4); test: Inhibition of human Aurora B (1 to 344 residues) assessed as remaining enzyme activity at 50 uM after 30 mins by 33P-ATP filter-binding assay
MDA-MB-231 = test: Cytotoxicity against human MDA-MB-231 cells assessed as cell growth inhibition after 48 hrs by MTT assay; type: functional; conditions: MDA-MB-231, 48 h
[6] = target: CDK9/cyclin T1 (Homo sapiens) (UniProt O60563+P50750); test: Inhibition of human Cdk9/T1 using YSPTSPSYSPTSPSYSPTSPKKK peptide as substrate at 0.5 uM after 30 mins by 33P-ATP filter-binding assay; type: protein-complex assay
[7] = target: Ephrin type-A receptor 2 (Homo sapiens) (UniProt P29317); test: Inhibition of human EPHA2 (591 to 976 residues) assessed as remaining enzyme activity at 50 uM after 30 mins by 33P-ATP filter-binding assay
[8] = target: Serine/threonine-protein kinase MARK2 (Homo sapiens) (UniProt Q7KZI7); test: Inhibition of human MARK2 (2 to 691 residues) assessed as remaining enzyme activity at 50 uM after 30 mins by 33P-ATP filter-binding assay
[9] = target: Tyrosine-protein kinase ZAP-70 (Homo sapiens) (UniProt P43403); test: Inhibition of human ZAP70 (1 to 619 residues) assessed as remaining enzyme activity at 50 uM after 30 mins by 33P-ATP filter-binding assay
[10] = target: CDK2/Cyclin A2 (Homo sapiens) (UniProt P24941+P20248); test: Inhibition of human Cdk2/cyclin A assessed as remaining enzyme activity at 50 uM after 30 mins by 33P-ATP filter-binding assay; type: protein-complex assay
[11] = Partition coefficient, logP of the compound in water/PBS buffer at pH 7.4 at 25 degC after 20 mins by shake flask method; type: physicochemical
[12] = target: Homeodomain-interacting protein kinase 1 (Homo sapiens) (UniProt Q86Z02); test: Inhibition of human HIPK1 (158 to 555 residues) assessed as remaining enzyme activity at 50 uM after 30 mins by 33P-ATP filter-binding assay
Homeodomain-interacting protein kinase 1 (Homo sapiens), sequence (Q86Z02 whole entry, looked up, the tested form may be a part): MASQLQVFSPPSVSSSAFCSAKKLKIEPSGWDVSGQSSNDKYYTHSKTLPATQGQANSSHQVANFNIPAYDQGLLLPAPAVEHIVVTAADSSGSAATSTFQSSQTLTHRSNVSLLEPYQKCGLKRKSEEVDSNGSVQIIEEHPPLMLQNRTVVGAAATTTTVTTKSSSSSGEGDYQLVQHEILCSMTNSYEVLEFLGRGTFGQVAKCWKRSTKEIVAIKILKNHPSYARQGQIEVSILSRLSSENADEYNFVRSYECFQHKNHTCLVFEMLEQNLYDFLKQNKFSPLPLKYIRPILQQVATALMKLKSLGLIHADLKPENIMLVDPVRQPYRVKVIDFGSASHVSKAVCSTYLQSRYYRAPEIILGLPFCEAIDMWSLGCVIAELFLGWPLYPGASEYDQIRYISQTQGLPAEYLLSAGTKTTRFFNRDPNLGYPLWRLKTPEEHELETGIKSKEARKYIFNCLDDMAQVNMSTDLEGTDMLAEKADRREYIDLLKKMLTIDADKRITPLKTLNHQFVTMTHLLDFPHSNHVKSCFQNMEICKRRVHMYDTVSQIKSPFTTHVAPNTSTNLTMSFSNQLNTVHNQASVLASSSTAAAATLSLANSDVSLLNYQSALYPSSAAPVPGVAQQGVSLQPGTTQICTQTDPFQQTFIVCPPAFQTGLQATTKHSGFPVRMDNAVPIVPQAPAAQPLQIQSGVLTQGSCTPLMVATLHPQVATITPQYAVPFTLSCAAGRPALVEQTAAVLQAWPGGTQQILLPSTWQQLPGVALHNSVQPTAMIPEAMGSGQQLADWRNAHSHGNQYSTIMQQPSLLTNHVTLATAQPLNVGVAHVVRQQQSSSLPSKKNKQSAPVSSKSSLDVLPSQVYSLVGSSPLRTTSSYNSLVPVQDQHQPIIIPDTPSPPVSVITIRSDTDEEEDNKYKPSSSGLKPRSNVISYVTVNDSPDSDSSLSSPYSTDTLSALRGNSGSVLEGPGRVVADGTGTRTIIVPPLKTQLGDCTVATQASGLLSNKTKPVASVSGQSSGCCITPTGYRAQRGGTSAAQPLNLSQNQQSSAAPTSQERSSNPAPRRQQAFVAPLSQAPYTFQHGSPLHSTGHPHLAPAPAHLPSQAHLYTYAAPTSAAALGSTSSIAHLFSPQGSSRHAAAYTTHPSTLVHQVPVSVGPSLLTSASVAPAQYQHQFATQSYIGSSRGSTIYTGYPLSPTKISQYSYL

[13] = target: Serine/threonine-protein kinase Nek2 (Homo sapiens) (UniProt P51955); test: Inhibition of human NEK2a (1 to 445 residues) assessed as remaining enzyme activity at 50 uM after 30 mins by 33P-ATP filter-binding assay
Serine/threonine-protein kinase Nek2 (Homo sapiens), sequence (P51955 whole entry, the tested form may be a part): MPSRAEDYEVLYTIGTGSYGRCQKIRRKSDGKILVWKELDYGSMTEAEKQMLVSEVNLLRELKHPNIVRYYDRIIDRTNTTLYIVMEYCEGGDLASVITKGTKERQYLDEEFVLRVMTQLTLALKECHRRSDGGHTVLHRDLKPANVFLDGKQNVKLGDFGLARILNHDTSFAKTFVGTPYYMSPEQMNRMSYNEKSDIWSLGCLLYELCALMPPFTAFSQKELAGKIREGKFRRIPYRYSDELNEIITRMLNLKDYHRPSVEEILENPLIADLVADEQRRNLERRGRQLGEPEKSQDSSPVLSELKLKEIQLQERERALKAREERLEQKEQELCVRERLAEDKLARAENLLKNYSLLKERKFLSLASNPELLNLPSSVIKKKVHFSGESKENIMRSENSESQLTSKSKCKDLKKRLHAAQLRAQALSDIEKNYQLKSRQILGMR

[14] = target: Protein kinase C gamma type (Homo sapiens) (UniProt P05129); test: Inhibition of human PKCgamma (1 to 697 residues) assessed as remaining enzyme activity at 50 uM after 30 mins by 33P-ATP filter-binding assay
[15] = target: Serine/threonine-protein kinase pim-2 (Homo sapiens) (UniProt Q9P1W9); test: Inhibition of human PIM2 (2 to 334 residues) assessed as remaining enzyme activity at 50 uM after 30 mins by 33P-ATP filter-binding assay
Serine/threonine-protein kinase pim-2 (Homo sapiens), sequence (Q9P1W9 whole entry, looked up, the tested form may be a part): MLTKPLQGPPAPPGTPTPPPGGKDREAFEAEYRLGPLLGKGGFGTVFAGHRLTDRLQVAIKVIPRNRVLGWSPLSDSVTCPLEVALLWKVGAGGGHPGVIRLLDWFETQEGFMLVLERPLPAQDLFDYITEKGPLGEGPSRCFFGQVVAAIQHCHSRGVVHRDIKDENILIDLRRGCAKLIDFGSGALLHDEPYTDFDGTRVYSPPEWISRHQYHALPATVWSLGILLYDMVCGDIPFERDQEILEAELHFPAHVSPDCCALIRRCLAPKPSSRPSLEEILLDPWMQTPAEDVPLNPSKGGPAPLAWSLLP

[16] = target: Serine/threonine-protein kinase pim-3 (Homo sapiens) (UniProt Q86V86); test: Inhibition of human PIM3 (2 to 326 residues) assessed as remaining enzyme activity at 50 uM after 30 mins by 33P-ATP filter-binding assay
[17] = Ionization constant, pKa of the compound in buffer at pH 1 to 13 by uV spectrophotometry; type: physicochemical
[18] = target: Mitogen-activated protein kinase 10 (Homo sapiens) (UniProt P53779); test: Inhibition of human JNK3 (40 to 422 residues) assessed as remaining enzyme activity at 50 uM after 30 mins by 33P-ATP filter-binding assay
Mitogen-activated protein kinase 10 (Homo sapiens), sequence (P53779 whole entry, the tested form may be a part): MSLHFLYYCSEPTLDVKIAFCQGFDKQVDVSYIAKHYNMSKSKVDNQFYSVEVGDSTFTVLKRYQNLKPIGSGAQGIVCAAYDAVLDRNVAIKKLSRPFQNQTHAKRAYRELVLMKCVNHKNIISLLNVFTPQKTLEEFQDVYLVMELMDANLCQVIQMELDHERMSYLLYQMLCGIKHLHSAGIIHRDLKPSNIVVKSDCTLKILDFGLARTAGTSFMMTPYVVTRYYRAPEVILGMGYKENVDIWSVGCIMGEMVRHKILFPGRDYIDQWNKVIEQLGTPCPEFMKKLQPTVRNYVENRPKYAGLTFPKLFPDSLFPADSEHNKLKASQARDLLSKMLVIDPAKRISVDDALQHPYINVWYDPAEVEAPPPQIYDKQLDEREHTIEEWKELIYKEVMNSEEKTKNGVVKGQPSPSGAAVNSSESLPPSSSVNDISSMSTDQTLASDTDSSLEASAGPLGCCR

[19] = Cytotoxicity against human THP1 cells assessed as cell growth inhibition after 48 hrs by MTT assay; type: functional; conditions: THP-1, 48 h
[20] = Cell cycle arrest in human HL60 cells assessed as accumulation at G2 phase at 10 uM (reference value: 5 %); type: functional, cell-based; conditions: HL-60
[21] = Cell cycle arrest in human HL60 cells assessed as accumulation at S phase at 1 uM (reference value: 36 %); type: functional, cell-based; conditions: HL-60
[22] = target: MAP/microtubule affinity-regulating kinase 3 (Homo sapiens) (UniProt P27448); test: Inhibition of human MARK3 (2 to 729 residues) assessed as remaining enzyme activity at 50 uM after 30 mins by 33P-ATP filter-binding assay
[23] = target: Serine/threonine-protein kinase N2 (Homo sapiens) (UniProt Q16513); test: Inhibition of human PRK2 (501 to 984 residues) assessed as remaining enzyme activity at 50 uM after 30 mins by 33P-ATP filter-binding assay
Serine/threonine-protein kinase N2 (Homo sapiens), sequence (Q16513 whole entry, looked up, the tested form may be a part): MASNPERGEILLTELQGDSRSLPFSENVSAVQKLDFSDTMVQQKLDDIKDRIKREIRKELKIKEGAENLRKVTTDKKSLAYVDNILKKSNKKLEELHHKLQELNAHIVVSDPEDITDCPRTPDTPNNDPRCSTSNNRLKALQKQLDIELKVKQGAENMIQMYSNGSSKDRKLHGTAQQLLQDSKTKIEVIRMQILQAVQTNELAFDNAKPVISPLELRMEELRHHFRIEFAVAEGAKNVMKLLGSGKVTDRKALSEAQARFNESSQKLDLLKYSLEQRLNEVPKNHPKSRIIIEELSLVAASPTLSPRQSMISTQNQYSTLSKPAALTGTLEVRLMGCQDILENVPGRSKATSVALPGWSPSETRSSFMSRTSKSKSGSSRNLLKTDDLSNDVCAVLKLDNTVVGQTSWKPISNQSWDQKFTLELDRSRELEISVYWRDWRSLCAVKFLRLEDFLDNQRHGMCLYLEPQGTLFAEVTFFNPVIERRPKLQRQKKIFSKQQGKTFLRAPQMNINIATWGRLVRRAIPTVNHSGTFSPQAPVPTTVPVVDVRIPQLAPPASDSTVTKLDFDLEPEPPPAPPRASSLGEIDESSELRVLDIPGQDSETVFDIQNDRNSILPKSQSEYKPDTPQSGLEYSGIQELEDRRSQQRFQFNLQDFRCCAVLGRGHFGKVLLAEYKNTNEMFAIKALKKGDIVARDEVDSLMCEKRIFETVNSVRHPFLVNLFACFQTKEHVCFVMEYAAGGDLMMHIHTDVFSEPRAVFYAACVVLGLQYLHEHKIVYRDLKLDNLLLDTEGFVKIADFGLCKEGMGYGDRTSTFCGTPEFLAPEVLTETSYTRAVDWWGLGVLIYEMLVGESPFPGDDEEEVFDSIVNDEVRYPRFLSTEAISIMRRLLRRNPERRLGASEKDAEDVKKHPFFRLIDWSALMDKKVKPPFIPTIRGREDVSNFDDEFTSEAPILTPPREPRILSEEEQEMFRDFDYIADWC

[24] = Cytotoxicity against HEK293 cells assessed as cell growth inhibition after 48 hrs by MTT assay; type: cell-based; conditions: human
LNCaP = test: Cytotoxicity against human LNCAP cells assessed as cell growth inhibition after 48 hrs by MTT assay; type: functional
[25] = target: Serine/threonine-protein kinase OSR1 (Homo sapiens) (UniProt O95747); test: Inhibition of human OSR1 assessed as remaining enzyme activity at 50 uM after 30 mins by 33P-ATP filter-binding assay
Serine/threonine-protein kinase OSR1 (Homo sapiens), sequence (O95747 2-527 limits assumed): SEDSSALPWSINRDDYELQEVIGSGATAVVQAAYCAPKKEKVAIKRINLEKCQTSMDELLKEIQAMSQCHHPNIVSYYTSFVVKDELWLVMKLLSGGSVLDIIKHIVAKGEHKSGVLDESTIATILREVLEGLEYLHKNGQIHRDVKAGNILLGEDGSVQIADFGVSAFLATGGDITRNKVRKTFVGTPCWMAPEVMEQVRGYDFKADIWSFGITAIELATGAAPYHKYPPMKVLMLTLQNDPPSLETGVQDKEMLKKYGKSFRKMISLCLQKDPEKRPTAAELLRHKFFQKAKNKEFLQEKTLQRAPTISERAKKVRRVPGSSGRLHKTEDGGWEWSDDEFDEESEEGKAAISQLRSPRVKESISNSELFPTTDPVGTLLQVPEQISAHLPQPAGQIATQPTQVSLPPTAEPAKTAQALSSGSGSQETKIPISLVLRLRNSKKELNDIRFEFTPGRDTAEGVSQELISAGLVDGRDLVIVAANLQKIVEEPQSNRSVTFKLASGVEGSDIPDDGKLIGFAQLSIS

[26] = target: Testis-specific serine/threonine-protein kinase 1 (Homo sapiens) (UniProt Q9BXA7); test: Inhibition of human TSSK1 (1 to 367 residues) assessed as remaining enzyme activity at 50 uM after 30 mins by 33P-ATP filter-binding assay
[27] = target: Insulin receptor (Homo sapiens) (UniProt P06213); test: Inhibition of human IR (1001 to 1382 residues) assessed as remaining enzyme activity at 50 uM after 30 mins by 33P-ATP filter-binding assay
[28] = target: Serine/threonine-protein kinase BRSK1 (Homo sapiens) (UniProt Q8TDC3); test: Inhibition of human BRSK1 (2 to 778 residues) assessed as remaining enzyme activity at 50 uM after 30 mins by 33P-ATP filter-binding assay
Serine/threonine-protein kinase BRSK1 (Homo sapiens), sequence (Q8TDC3 whole entry, the tested form may be a part): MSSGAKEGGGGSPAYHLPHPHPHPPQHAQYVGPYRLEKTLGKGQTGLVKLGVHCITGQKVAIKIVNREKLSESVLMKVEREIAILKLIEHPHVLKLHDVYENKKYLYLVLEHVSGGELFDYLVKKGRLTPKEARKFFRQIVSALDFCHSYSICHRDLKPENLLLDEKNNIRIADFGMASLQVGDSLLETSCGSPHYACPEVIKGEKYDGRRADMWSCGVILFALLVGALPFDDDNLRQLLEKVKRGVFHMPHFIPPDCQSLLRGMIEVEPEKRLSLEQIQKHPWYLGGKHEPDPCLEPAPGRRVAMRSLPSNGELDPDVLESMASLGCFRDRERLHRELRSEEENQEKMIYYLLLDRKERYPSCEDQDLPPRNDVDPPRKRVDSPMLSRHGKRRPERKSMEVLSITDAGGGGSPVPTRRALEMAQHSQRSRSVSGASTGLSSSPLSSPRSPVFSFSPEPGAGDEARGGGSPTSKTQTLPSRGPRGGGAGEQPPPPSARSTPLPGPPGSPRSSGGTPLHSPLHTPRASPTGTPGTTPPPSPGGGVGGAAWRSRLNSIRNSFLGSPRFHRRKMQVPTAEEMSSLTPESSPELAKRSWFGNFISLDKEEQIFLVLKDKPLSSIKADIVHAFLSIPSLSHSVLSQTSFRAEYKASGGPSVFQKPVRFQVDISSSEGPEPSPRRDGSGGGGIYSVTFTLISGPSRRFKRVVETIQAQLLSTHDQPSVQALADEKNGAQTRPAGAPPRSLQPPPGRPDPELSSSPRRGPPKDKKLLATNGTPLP

[29] = target: Mitogen-activated protein kinase kinase kinase 5 (Homo sapiens) (UniProt Q99683); test: Inhibition of human ASK1 (670 to 950 residues) assessed as remaining enzyme activity at 50 uM after 30 mins by 33P-ATP filter-binding assay

## Cc1cc(=O)c2c(O)cc(O)c([C@H]3CCN(C)C[C@H]3O)c2o1 [ROHITUKINE]
[1]
  Activity: 18%
[2]
  Activity: 88%
[3]
  Activity: 82%
[4]
  Activity: 75%
[5]
  Activity: 58%
MDA-MB-231
  GI50: 13 µM
[6]
  inhibition: 75%
[7]
  Activity: 38%
[8]
  Activity: 69%
[9]
  Activity: 103%
[10]
  Activity: 16%
[11]
  logD at 20 min: -0.55
[12]
  Activity: 96%
[13]
  Activity: 89%
[14]
  Activity: 89%
[15]
  Activity: 67%
[16]
  Activity: 12%
[17]
  pKa: 5.83
[18]
  Activity: 87%
[19]
  GI50: 28 µM
[20]
  Activity: 4%
[21]
  Activity: 50%
[22]
  Activity: 41%
[23]
  Activity: 42%
[24]
  GI50 at 48 h: > 50 µM
LNCaP
  GI50: 30 µM
[25]
  Activity: 93%
[26]
  Activity: 81%
[27]
  Activity: 91%
[28]
  Activity: 36%
[29]
  Activity: 96%
